According to patent US9012407B2, “Therapies which act on neuropeptide S receptors” (The Regents of the University of California, priority 2004, dated 2015):

Key:
[1] = test system: C57Bl/6 mice; experiment: Open field test; assay type: in vivo; conditions: naive mice, i.c.v.
Protocol: Naïve mice were tested in the open field, a paradigm of free exploratory behavior in a novel environment. […] In order to further study NPS effects on stress as it relates to anxiety, two additional tests were performed that are based on the natural aversion of rodents to open or unprotected spaces: the light-dark box and the elevated plus maze (FIG. 8B, C).
Male C57Bl/6 mice (National Cancer Institute, Bethesda, MD), age 10-14 weeks, were group-housed (4 animals per cage) under controlled conditions (temperature 21±2° C.; relative humidity 50-60%; 12-hour light-dark cycle, lights on 6:00 AM) with free access to food and water. Prior to drug injections, mice were briefly anesthetized with halothane. NPS was dissolved in phosphate-buffered saline (PBS, pH 7.4) and injected i.c.v. (total volume: 2 μl) as described before (Laursen and Belknap, 1986). […]
(§1) Locomotion was monitored in rectangular plexiglass boxes (60×40×50 cm). Horizontal activity was measured over 60 min by 18×12 infrared sensors placed 2 cm above the floor. […] Marble burying was measured in mice placed individually in polypropylene cages (30×18×12 cm) containing 18 glass marbles (1.5 cm diameter) evenly spaced on 5 cm deep rodent bedding (bed-o'cob, The Andersons Inc., Maumee, Ohio) (Njung'e and Handley, 1991). […] Cages were covered with a metal grid and the number of marbles covered at least two-thirds was counted after 30 min.

[2] = test system: C57Bl/6 mice; experiment: Marble-burying paradigm; assay type: in vivo; conditions: 30 min observation, 18 marbles per cage, i.c.v.
Source text: Many anxiolytic drugs increase exploratory activity in the open field, light-dark box or elevated plus maze paradigms. However, compounds stimulating locomotion could produce false-positive effects in these tests because the enhanced exploration could be secondary to the increase in general activity. In order to validate the observed anxiolytic-like effects of NPS, we tested increasing doses of NPS in the marble-burying paradigm. Mice tend to bury objects such as glass marbles present in their environment. Anxiolytic drugs such as benzodiazepines reduce the number of marbles buried over a fixed period of time. […]
as §1

[3] = molecular target: T1, NPSR Ile^107 (Homo sapiens, UniProt Q6W5P4, N107I); experiment: Intracellular Ca2+ mobilization (FLIPR) in HEK 293 cells stably expressing NPSR Ile107; assay type: cell-based; conditions: Ca2+ mobilization, cAMP formation or MAPK phosphorylation
T1 construct: The Ile^107 isoform of NPSR was generated by PCR using synthetic oligonucleotides and the Quik Change Site-Directed Mutagenesis kit from Stratagene; expressed in transfected cells
T1 sequence (Q6W5P4 1-371 N107I): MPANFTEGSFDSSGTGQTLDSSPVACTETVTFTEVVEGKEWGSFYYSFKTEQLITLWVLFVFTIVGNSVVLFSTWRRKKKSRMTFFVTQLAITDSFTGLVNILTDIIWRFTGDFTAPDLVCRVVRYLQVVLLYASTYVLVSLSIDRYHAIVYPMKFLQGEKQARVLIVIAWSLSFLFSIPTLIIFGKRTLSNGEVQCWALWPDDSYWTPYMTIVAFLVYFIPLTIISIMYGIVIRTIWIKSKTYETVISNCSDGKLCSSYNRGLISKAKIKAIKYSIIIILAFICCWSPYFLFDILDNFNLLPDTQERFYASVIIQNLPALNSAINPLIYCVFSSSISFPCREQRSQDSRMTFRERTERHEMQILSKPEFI
Protocol: Changes of agonist-induced intracellular Ca^2+ were measured using the FLIPR technology as described before (5, 6). NPS and truncated NPS peptides were a gift from Phoenix Pharmaceuticals (Belmont, Calif.). Dose-response curves were calculated using GraphPad Prism (Graph Pad, San Diego). Mean EC50 values of populations of stable clones expressing either wildtype or mutant NPSR were compared using unpaired t-test and p<0.05 was considered significant.
Two cells lines expressing similar levels (measured by radioligand binding; see below) of either NPSR WT or NPSR Ile were chosen for detailed analyses of pharmacological parameters. […] In order to investigate whether this tenfold increase in agonist potency at NPSR lie was a general property of the receptor protein we compared a large number of stable clones expressing either NPSR WT or NPSR Ile^107 by establishing dose-response curves for each construct and calculating mean EC50 values for the populations.

[4] = molecular target: T2, NPSR C-alt (Homo sapiens, UniProt Q6W5P4); experiment: CRE-luciferase reporter gene assay, HEK 293 cells, NPSR C-alt; assay type: cell-based; conditions: transiently transfected HEK cells; read-out: EC50, luciferase reporter induction
T2 construct: The C-terminal splice variant of NPSR (NPSR C-alt, GPRA isoform B); expressed in transfected cells; host or cells: HEK 293 cells carrying the CRE-luciferase reporter, transient transfection, pcDNA3.1 hygro
T2 sequence (Q6W5P4 1-377 isoform Q6W5P4-4): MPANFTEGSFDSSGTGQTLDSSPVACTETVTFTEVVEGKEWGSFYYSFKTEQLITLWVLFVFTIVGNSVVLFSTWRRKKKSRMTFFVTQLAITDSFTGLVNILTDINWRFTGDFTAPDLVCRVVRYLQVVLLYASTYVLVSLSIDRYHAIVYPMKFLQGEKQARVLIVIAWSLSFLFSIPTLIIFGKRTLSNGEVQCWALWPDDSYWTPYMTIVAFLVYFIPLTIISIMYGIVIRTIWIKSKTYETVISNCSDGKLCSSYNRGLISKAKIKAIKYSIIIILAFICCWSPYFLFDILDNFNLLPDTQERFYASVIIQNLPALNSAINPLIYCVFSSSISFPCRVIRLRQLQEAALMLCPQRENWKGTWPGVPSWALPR
Source text: HEK 293 cells were stably transfected with a reporter gene containing 6 copies of a cAMP response element (CRE; sequence […]) in front of a luciferase reporter gene (Promega) cloned into pcDNA3.1 neo. One stable clone showing robust induction of reporter gene expression after forskolin challenge was chosen for further experiments. The different NPSR isoform cDNAs (cloned into pcDNA3.1 hygro) were transfected into these cells using lipofectamine and stable clones were selected. The same cells and procedures were also used for transient transfection. For induction of reporter gene expression cells were plated in 96-well plates and incubated with agonist for 5 hours in serum-free medium, followed by aspiration of the medium and cell lysis with 25 mM Tris-phosphate, pH 7.8, 2 mM dithiothreitol, 2 mM 1,2-diaminocyclohexane-N,N,N′,N′,-tetraacetic acid, 10% glycerol, 1% Triton X-100. After one freeze-thaw cycle aliquots of supernatant were transferred to white clear-bottom 96-well plates (Greiner) and luciferase content was quantified by bioluminescence (Luc-Screen, Applied Biosystems). Plates were counted in a scintillation counter using bioluminescence settings (MicroBeta, Wallac-Perkin Elmer).

## NPS: neuropeptide S, endogenous NPSR ligand; species of the peptide not stated at the place of the result (SFRNGVGTGMKKTSFQRAKS)
[1]; first 10 minutes
  number of entries in the central zone: significantly increased
[1]; same doses
  ambulations in the outer zones of the open field: increased
[2]
  number of marbles buried: dose-dependently reduced
[3]
  efficacy at NPSR Ile107 as compared to the wildtype receptor: ten-fold
[4]
  EC50: 146 ± 15.1 nM
